The source made the active and inactive calls. The calls are words filed in the database; no cut-off is given here.
Tests used:
Aspergillus fumigatus [1] = assay: Antimicrobial activity against Aspergillus fumigatus FSGC A1240 assessed as reduction in microbial growth after 48 hrs by resazurin staining based liquid serial dilution assay; assay type: functional
Candida albicans [2] = assay: Antimicrobial activity against Candida albicans ATCC 10231 assessed as reduction in microbial growth after 48 hrs by resazurin staining based liquid serial dilution assay; assay type: functional
Nakaseomyces glabratus = assay: Antimicrobial activity against Candida glabrata ATCC 2001 assessed as reduction in microbial growth after 48 hrs by resazurin staining based liquid serial dilution assay; assay type: functional
Cryptococcus neoformans [3] = assay: Antimicrobial activity against Cryptococcus neoformans H99 assessed as reduction in microbial growth after 72 hrs by resazurin staining based liquid serial dilution assay; assay type: functional
Candida tropicalis = assay: Antimicrobial activity against Candida tropicalis ATCC 750 assessed as reduction in microbial growth after 48 hrs by resazurin staining based liquid serial dilution assay; assay type: functional
Staphylococcus aureus = assay: Antimicrobial activity against Staphylococcus aureus ATCC 43300 assessed as reduction in microbial growth after 24 hrs by resazurin staining based liquid serial dilution assay; assay type: functional
Candida albicans [4] = assay: Inhibition of hyphal extension in Candida albicans SC3514 at 10 ug/ml measured at >48 hrs by microscopic analysis; assay type: functional, organism-based; details: dose 10.0 µg/ml, time hrs >48
Cryptococcus neoformans [5] = assay: Effect on cAMP signaling mediated virulence associated encapsulation phenotype in Cryptococcus neoformans H99 incubated for 72 hrs by India Ink staining based analysis; assay type: functional
Cryptococcus neoformans [6] = assay: Antimicrobial activity against Cryptococcus neoformans H99 harboring pka1 deletion mutant assessed as reduction in microbial growth after 72 hrs by resazurin staining based liquid serial dilution assay; assay type: functional, organism-based
Cryptococcus neoformans [7] = assay: Antimicrobial activity against Cryptococcus neoformans H99 harboring cac1 deletion mutant assessed as reduction in microbial growth after 72 hrs by resazurin staining based liquid serial dilution assay; assay type: functional, organism-based
[8] = test system: Schizosaccharomyces pombe; assay: Antimicrobial activity against Schizosaccharomyces pombe strain SAK1 assessed as reduction in microbial growth by resazurin staining based CLSI method; assay type: functional
Aspergillus fumigatus [9] = assay: Inhibition of hyphal extension in Aspergillus fumigatus AF293 at 10 ug/ml measured after 48 hrs by microscopic analysis; assay type: functional, organism-based; details: dose 10.0 µg/ml
Candida albicans [10] = assay: Inhibition of hyphal extension in Candida albicans SC3514 at 10 ug/ml measured after 24 to 48 hrs by microscopic analysis; assay type: functional, organism-based; details: dose 10.0 µg/ml, time 24-48 hrs
Aspergillus fumigatus [11] = assay: Antimicrobial activity against Aspergillus fumigatus AF293 assessed as reduction in microbial growth after 48 hrs by resazurin staining based liquid serial dilution assay; assay type: functional
Cryptococcus neoformans [12] = assay: Antimicrobial activity against Cryptococcus neoformans H99 harboring pde1 deletion mutant assessed as reduction in microbial growth after 72 hrs by resazurin staining based liquid serial dilution assay; assay type: functional, organism-based
Cryptococcus neoformans [13] = assay: Antimicrobial activity against Cryptococcus neoformans H99 harboring pkr1 deletion mutant assessed as reduction in microbial growth after 72 hrs by resazurin staining based liquid serial dilution assay; assay type: functional, organism-based
[14] = test system: Schizosaccharomyces pombe; assay: Antimicrobial activity against Schizosaccharomyces pombe strain SAK1 harboring MJ-1682 efflux mutant assessed as reduction in microbial growth by resazurin staining based CLSI method; assay type: functional
Cryptococcus neoformans [15] = assay: Antimicrobial activity against Cryptococcus neoformans H99 harboring gpa1 deletion mutant assessed as reduction in microbial growth after 72 hrs by resazurin staining based liquid serial dilution assay; assay type: functional, organism-based
Cryptococcus neoformans [16] = assay: Effect on cAMP signaling mediated virulence associated melanin production phenotype in Cryptococcus neoformans H99 incubated for 72 hrs in presence of L-DOPA; assay type: functional

| Compound | MIC (Aspergillus fumigatus [1]) [µg/mL] | MIC (Candida albicans [2]) [µg/mL] | MIC (Nakaseomyces glabratus) [µg/mL] | MIC (Cryptococcus neoformans [3]) [µg/mL] | MIC (Candida tropicalis) [µg/mL] | MIC (Staphylococcus aureus) [µg/mL] | inhibition (Candida albicans [4]) | Activity (Cryptococcus neoformans [5]) | Activity (Cryptococcus neoformans [6]) | Activity (Cryptococcus neoformans [7]) | MIC [8] [µg/mL] | inhibition (Aspergillus fumigatus [9]) | inhibition (Candida albicans [10]) | MIC (Aspergillus fumigatus [11]) [µg/mL] | Activity (Cryptococcus neoformans [12]) | Activity (Cryptococcus neoformans [13]) | MIC [14] [µg/mL] | Activity (Cryptococcus neoformans [15]) | Activity (Cryptococcus neoformans [16]) |
| --- | --- | --- | --- | --- | --- | --- | --- | --- | --- | --- | --- | --- | --- | --- | --- | --- | --- | --- | --- |
| C[C@@H]1[C@H](O)[C@@H](C)/C=C/C=C/C=C/C=C/C=C/C=C/C=C/[C@H](O[C@@H]2O[C@H](C)[C@@H](O)[C@H](N)[C@@H]2O)C[C@@H]2O[C@](O)(C[C@@H](O)C[C@@H](O)[C@H](O)CC[C@@H](O)C[C@@H](O)CC(=O)O[C@H]1C)C[C@H](O)[C@H]2C(=O)O [AMPHOTERICIN B] | 0.74 | 0.36 | 0.18 | 0.36 | 0.36 | – | – | – | – | – | – | – | – | – | – | – | – | – | – |
| C/C=C(\C)[C@]1(O)C=C[C@@H]2CC(C)=CC[C@H]2[C@]1(O)/C=C/C=C/C=C\C=C\C=C\C(=O)O | 64 | > 128 | > 128 | 8 | 64 | 32 | – | – | – | – | – | – | – | – | – | – | – | – | – |
| C\C=C(/C=C/C=C/C=C/C=C/C(=O)O)[C@]1(O)[C@H]2CC=C(C)C[C@@H]2C=C[C@@]1(C)O | 64 | 128 | > 128 | 8 | 64 | 64 | inactive | inactive | Active | Active | 10 | Active | Active | 38 | Active | Active | 2 | Active | inactive |
| C/C=C(\C)[C@@]1(O)[C@@H](/C=C/C=C/C=C/C=C/C(=O)O)[C@@H]2CC=C(C)C[C@H]2[C@@H]2O[C@@H]21 | 64 | 128 | > 128 | 4 | 64 | 32 | – | – | – | – | – | – | – | – | – | – | – | – | – |
| C/C=C(\C)[C@]1(O)C=C[C@@H]2CC(C)=CC[C@H]2[C@]1(O)/C=C/C=C/C=C\C=C\C(=O)O | 64 | 128 | > 128 | 4 | 64 | 32 | – | – | – | – | – | – | – | – | – | – | – | – | – |
